In patent US12643871B2, “Aryl formamide compound containing chiral sulfur oxide or salt thereof, preparation method, herbicidal composition and use thereof” (Qingdao Kingagroot Chemical Compound Co., Ltd., priority 2019, dated 2026):

Legend:
Assay in all cases: Weeding effect in post-emergence stage
Assay type in all cases: in vivo
Details in all cases: 250 g/ha; 2 leaf stage; 15 days after application; fresh weight control rate
Amaranthus retroflexus = tested on: Amaranthus retroflexus
From the text: (§1) The activity level criteria for harmful plant damage (i.e., growth control rate) are as follows: • Level 5: growth control rate is above 85%; • Level 4: growth control rate is greater than or equal to 60% and less than 85%; • Level 3: growth control rate is greater than or equal to 40% and less than 60%; • Level 2: growth control rate is greater than or equal to 20% and less than 40%; • Level 1: growth control rate is greater than or equal to 5% and less than 20%; • Level 0: growth control rate is less than 5%.
(§2) The above growth control rates are fresh weight control rates.
(§3) Experiment on weeding effect in post-emergence stage: monocotyledonous and dicotyledonous weed seeds (Descurainia sophia, Capsella bursa-pastoris, Galium aparine, Stellaria media, Lithospermum arvense, Rorippa indica, Alopecurus aequalis, Beckmannia syzigachne, Sclerochloa dura, Phleum paniculatum, Bromus japonicus, Aegilops tauschii, Phalaris arundinacea, Amaranthus retroflexus, Chenopodiaceae, Commelina communis, Sonchus arvensis, convolvulus arvensis, Cirsium setosum, Solanum nigrum, Acalypha australis, Digitaria sanguinalis, Echinochloa crusgalli, Setaria viridis, Setaria glauca, Leptochloa chinensis, Monochoria vaginalis, Sagittaria trifolia, Scirpus juncoides, Cyperus rotundus, Cyperus iria, Cyperus difformis, Fimbristylis, Portulaca oleracea, Xanthium sibiricum, Pharbitis nil) and major crop seeds (wheat, corn, rice, soybean, cotton, oilseed rape, millet, sorghum, potato, sesame, ricinus) were placed in plastic pots filled with soil, then covered with 0.5-2 cm of soil, allowed to grow in a good greenhouse environment. After 2 weeks of sowing, the test plants were treated in the 2 leaf stage. The tested compounds of the present invention were respectively dissolved in acetone, then added with Tween 80 and 1.5 liter/ha of emulsifiable concentrate of methyl oleate as synergist, diluted with a certain amount of water to obtain a solution with a certain concentration, and sprayed with a spray tower onto the plants. After the application, the plants were cultured for 15 days in the greenhouse, and then the experimental results of the weeding were counted. The doses of the used compounds were 500, 250, 125, 60, 30, 15 g/ha, and the averages were obtained by repeating for three times.

Digitaria sanguinalis = tested on: Digitaria sanguinalis
From the text: as §1, §2, §3

Echinochloa crusgali = tested on: Echinochloa crusgali
From the text: as §1, §2, §3

SMILES	weeding effect in post-emergence stage, activity level (growth control rate), Amaranthus retroflexus (Amaranthus retroflexus)	weeding effect in post-emergence stage, activity level (growth control rate), Digitaria sanguinalis (Digitaria sanguinalis)	weeding effect in post-emergence stage, activity level (growth control rate), Echinochloa crusgali (Echinochloa crusgali)
CCC[S@@+]([O-])c1c(C(F)F)ccc(C(=O)Nc2nnnn2C)c1SC [Compound 867]	5 (Level 5: growth control rate is above 85%)	5 (Level 5: growth control rate is above 85%)	5 (Level 5: growth control rate is above 85%)
Cc1c(C(=O)Nc2nnnn2C)ccc(S(C)(=O)=O)c1[S@+]([O-])CCCC(F)(F)F [Compound 601]	5 (Level 5: growth control rate is above 85%)	5 (Level 5: growth control rate is above 85%)	5 (Level 5: growth control rate is above 85%)
Cc1nnc(NC(=O)c2ccc(C(F)(F)F)c([S@+]([O-])CC(=O)OC(C)(C)C)c2F)o1 [Compound 199]	5 (Level 5: growth control rate is above 85%)		5 (Level 5: growth control rate is above 85%)
CC[S@@+]([O-])c1c(C(F)(F)F)ccc(C(=O)Nc2ccon2)c1OC [Compound 457]	5 (Level 5: growth control rate is above 85%)		5 (Level 5: growth control rate is above 85%)
COC(=O)CC[S@@+]([O-])c1c(C(F)(F)F)ccc(C(=O)Nc2nnc(C)o2)c1OC [Compound 354]	5 (Level 5: growth control rate is above 85%)		5 (Level 5: growth control rate is above 85%)
Cc1c(C(=O)Nc2nnnn2C)ccc(S(C)(=O)=O)c1[S@+]([O-])CC(C)C [Compound 515]	5 (Level 5: growth control rate is above 85%)		5 (Level 5: growth control rate is above 85%)
COc1c(C(=O)Nc2nnc(C)o2)ccc(C(F)(F)F)c1[S@+]([O-])CCc1ccccc1 [Compound 318]	5 (Level 5: growth control rate is above 85%)		5 (Level 5: growth control rate is above 85%)
CC[S@@+]([O-])c1c(C)ccc(C(=O)Nc2nnc(C)o2)c1C [Compound 481]	5 (Level 5: growth control rate is above 85%)		5 (Level 5: growth control rate is above 85%)
Cc1nnc(NC(=O)c2ccc(C(F)(F)F)c([S@@+]([O-])COC(=O)C(C)(C)C)c2F)o1 [Compound 202]	5 (Level 5: growth control rate is above 85%)		5 (Level 5: growth control rate is above 85%)
CC(=O)C[S@@+]([O-])c1c(C(F)(F)F)ccc(C(=O)Nc2nnc(C)o2)c1F [Compound 193]	5 (Level 5: growth control rate is above 85%)		5 (Level 5: growth control rate is above 85%)
CC[S@@+]([O-])c1c(C(F)(F)F)ccc(C(=O)Nc2nocc2C)c1OC [Compound 458]	5 (Level 5: growth control rate is above 85%)		5 (Level 5: growth control rate is above 85%)
Cc1nnc(NC(=O)c2ccc(C(F)(F)F)c([S@+]([O-])CCC(C)(C)C)c2F)o1 [Compound 13]	5 (Level 5: growth control rate is above 85%)		5 (Level 5: growth control rate is above 85%)
Cc1nnc(NC(=O)c2ccc(C(F)(F)F)c([S@+]([O-])CC=O)c2F)o1 [Compound 191]	5 (Level 5: growth control rate is above 85%)		5 (Level 5: growth control rate is above 85%)
Cc1nnc(NC(=O)c2ccc(C)c([S@+]([O-])C(C)C)c2C)o1 [Compound 483]	5 (Level 5: growth control rate is above 85%)		5 (Level 5: growth control rate is above 85%)
COc1c(C(=O)Nc2nnc(C)o2)ccc(C(F)(F)F)c1[S@+]([O-])Cc1cn(C)nc1C [Compound 356]	5 (Level 5: growth control rate is above 85%)		5 (Level 5: growth control rate is above 85%)
Cc1nnc(NC(=O)c2ccc(S(C)(=O)=O)c([S@+]([O-])CCF)c2C)o1 [Compound 499]	5 (Level 5: growth control rate is above 85%)		5 (Level 5: growth control rate is above 85%)
C=CC[S@@+]([O-])c1c(S(C)(=O)=O)ccc(C(=O)Nc2nnnn2C)c1C [Compound 516]	5 (Level 5: growth control rate is above 85%)		5 (Level 5: growth control rate is above 85%)
CC[S@@+]([O-])c1c(C(F)(F)F)ccc(C(=O)Nc2ncnn2C)c1OC [Compound 471]	5 (Level 5: growth control rate is above 85%)		5 (Level 5: growth control rate is above 85%)
CCCCCCC[S@@+]([O-])c1c(C(F)(F)F)ccc(C(=O)Nc2nnc(C)o2)c1F [Compound 14]	5 (Level 5: growth control rate is above 85%)		5 (Level 5: growth control rate is above 85%)
CC[S@@+]([O-])c1c(C(F)(F)F)ccc(C(=O)Nc2nnc(C3CC3)o2)c1OC [Compound 428]	5 (Level 5: growth control rate is above 85%)		5 (Level 5: growth control rate is above 85%)
Cc1ccc(C(=O)Nc2nnnn2C)c(C)c1[S@+]([O-])CC(C)C [Compound 477]	5 (Level 5: growth control rate is above 85%)		5 (Level 5: growth control rate is above 85%)
COc1c(C(=O)Nc2nnc(C)o2)ccc(C(F)(F)F)c1[S+]([O-])COC(=O)C(C)(C)C (stereo not shown) [Compound 355]	5 (Level 5: growth control rate is above 85%)		5 (Level 5: growth control rate is above 85%)
CC[S@@+]([O-])c1c(C(F)(F)F)ccc(C(=O)N(C(=O)OC)c2nnc(C)o2)c1F [Compound 231]	5 (Level 5: growth control rate is above 85%)		5 (Level 5: growth control rate is above 85%)
CCCCn1nnnc1NC(=O)c1ccc(C(F)(F)F)c([S@+]([O-])CC)c1OC [Compound 448]	5 (Level 5: growth control rate is above 85%)		5 (Level 5: growth control rate is above 85%)
CC[S@@+]([O-])c1c(C(F)(F)F)ccc(C(=O)Nc2nnc(C(C)C)o2)c1OC [Compound 425]	5 (Level 5: growth control rate is above 85%)		5 (Level 5: growth control rate is above 85%)
Cc1nnc(NC(=O)c2ccc(S(C)(=O)=O)c([S@+]([O-])CC(C)F)c2C)o1 (stereo partly shown) [Compound 501]	5 (Level 5: growth control rate is above 85%)		5 (Level 5: growth control rate is above 85%)
CC[S@@+]([O-])c1c(C(F)(F)F)ccc(C(=O)N(C(=O)c2cn(C)nc2C)c2nnc(C)o2)c1F [Compound 223]	5 (Level 5: growth control rate is above 85%)		5 (Level 5: growth control rate is above 85%)
CCC[S@@+]([O-])c1c(S(C)(=O)=O)ccc(C(=O)Nc2nnnn2C)c1C [Compound 512]	5 (Level 5: growth control rate is above 85%)		5 (Level 5: growth control rate is above 85%)
